Reference: article PMC10820528, “New Rare Triterpene Glycosides from Pacific Sun Star, Solaster pacificus, and Their Anticancer Activity” (Marine Drugs, 2023)

Assays:
[1] = test system: breast cancer MDA-MB-231 cells; assay: Scratch (wound-healing) assay, MDA-MB-231; assay type: cell-based; settings: Homo sapiens, 24 h of treatment, compared to control at 24 h, read-out: inhibition of migration of MDA-MB-231 cells
From the text: (§1) Metastasis is the leading cause of cancer mortality. The metastatic cascade is a multistep process in which cancer cells are […], from the primary tumor to distant parts and tissues. Migration and plasticity of cancer cells, as well as the environment such as stromal and endothelial cells, are essential in metastasis. In this study, the migration ability (invasive potential) of colorectal carcinoma HCT 116 cells and breast cancer MDA-MB-231 cells and the anti-invasive effect of compound 2 were determined by the “wound-healing”, or scratch, method.
HCT 116 and MDA-MB-231 cells (3 × 10^5 cells/mL) were seeded in 6-well plates and grown to 80% confluence for 24 h. After removing the culture medium, the cells’ monolayer was scraped with a 200 µL sterile pipette tip, to create a straight scratch. Then, the cells were treated with compound 2 at concentrations of 0.6, 1.25, 2.5, and 5 µM and incubated for 24, 48, and 72 h. All experiments were set up in triplicate for each group. For image analysis, the cell migration into the wound area was photographed at the stages of 0, 24, 48, and 72 h through a Motic AE 20 microscope and using the ImageJ v. […] The cell migration distance was estimated by measuring the width of the wound, and was expressed as the percentage of each control (0 h) in relation to the mean of the wound-closure area.

[2] = test system: human colorectal carcinoma HCT 116 cells; assay: Soft-agar clonogenic assay, HCT 116; assay type: cell-based; settings: 14 days
Protocol: (§2) The soft-agar clonogenic assay was applied in order to assess the effect of compound 2 on the colony formation of human colorectal carcinoma HCT 116 and breast cancer MDA-MB-231 cells. As a result, compound 2 at concentrations of 0.6, 1.25, 2.5, and 5 µM decreased the number of colonies of HCT 116 cells by 11, 24, 52, and 97%, respectively (Figure 6a,b) and MDA-MB-231 cells by 20, 39, 61, and 80%, respectively (Figure 6c,d).
(§3) HCT 116 and MDA-MB-231 cells (2.4 × 10^4/mL) were treated with compound 2 (0.6, 1.25, 2.5, and 5 µM). Then, the cells were placed onto 0.3% BME agar containing 10% FBS, 2 mM L-glutamine, and 25 µg/mL gentamicin. The cultures were maintained at 37 °C in a 5% CO2 incubator for 14 days. The number of colonies was counted under an AE 20 Motic microscope using the ImageJ v. 1.50i software, bundled with 64-bit Java 1.6.0_24 (NIH, Bethesda, MD, USA).

[3] = test system: breast cancer MDA-MB-231 cells; assay: cells; assay type: cell-based
Protocol: (§4) We calculated the inhibiting concentration that cause death of 50% of cells (IC50) and the selectivity index (SI) of the compounds tested (Table 4).
(§5) The human embryonic kidney HEK 293 cells (ATCC® CRL-1573™), breast cancer MDA-MB-231 cells (ATCC® HTB-26™), and colorectal carcinoma HCT 116 cells (ATCC® CCL-247™) were purchased from the American Type Culture Collection (Manassas, VA, USA). The HEK 293 and MDA-MB-231 cells were cultured in DMEM; the HCT 116 cells were cultured in the McCoy’s 5A medium at 37 °C in a humidified atmosphere containing 5% CO2. The culture media were supplemented with 10% heat-inactivated FBS and a 1% penicillin/streptomycin solution. The number of passages was carefully controlled, and contamination by Mycoplasma was monitored on a regular basis.
(§6) Compounds 1–3, and 6–8 were dissolved in sterile dimethyl sulfoxide (DMSO), to prepare stock concentrations of 20 mM. Cells were treated with serially diluted 1–3, 6–8 (0.3–100 µM) (with the culture medium used as diluent) (the final concentration of DMSO was less than 0.5%). The vehicle control was the cells treated with an equivalent volume of DMSO (the final concentration was less than 0.5%) for all of the presented experiments.
(§7) HEK 293 (1.0 × 10^4/200 µL), HCT 116 (1.0 × 10^4/200 µL), and MDA-MB-231 (0.8 × 10^4/200 µL) cells were seeded in a 96-well plate and incubated for 24 h at 37 °C in a CO2 incubator. […] The cells were subsequently incubated with 15 µL of the MTS reagent for 3 h. The absorbance of each well was measured at 490/630 nm on a Power Wave XS microplate reader (BioTek, Winooski, VT, USA).
(§8) The IC50 concentration was calculated using the AAT-Bioquest® online calculator [24]. The selectivity index (SI) was calculated as described previously, using the following formula: SI = IC50 of the compounds for normal cells (HEK 293) divided by IC50 of the same compounds for the human colorectal adenocarcinoma and breast cancer (HCT 116 and MDA-MB-231) cell lines.

[4] = test system: human embryonic kidney HEK 293 cells; assay: cells; assay type: cell-based
Protocol: as §4, §5, §6, §7, §8

[5] = test system: human colorectal carcinoma HCT 116 cells; assay: Scratch (wound-healing) assay, HCT 116; assay type: cell-based; settings: for suppression of migration of HCT 116 cells: 48 h, compared to control at 48 h; for reduction of migration of HCT 116 cells: 72 h of treatment, compared to control at 72 h
From the text: as §1
HCT 116 and MDA-MB-231 cells (3 × 10^5 cells/mL) were seeded in 6-well plates and grown to 80% confluence for 24 h. After removing the culture medium, the cells’ monolayer was scraped with a 200 µL sterile pipette tip, to create a straight scratch. Then, the cells were treated with compound 2 at concentrations of 0.6, 1.25, 2.5, and 5 µM and incubated for 24, 48, and 72 h. All experiments were set up in triplicate for each group. For image analysis, the cell migration into the wound area was photographed at the stages of 0, 24, 48, and 72 h through a Motic AE 20 microscope and using the ImageJ v. 1.50i software, bundled with 64-bit Java 1.6.0_24 (NIH, Bethesda, MD, USA). The cell migration distance was estimated by measuring the width of the wound, and was expressed as the percentage of each control (0 h) in relation to the mean of the wound-closure area.

[6] = test system: colorectal carcinoma HCT 116 cells; assay: cells; assay type: cell-based
Protocol: We determined the cytotoxicity of compounds 1–3 and 6–8 against human embryonic kidney HEK 293, colorectal carcinoma HCT 116, and breast cancer MDA-MB-231 cells by the MTS assay, after 24 h of treatment with the compounds. We calculated the inhibiting concentration that cause death of 50% of cells (IC50) and the selectivity index (SI) of the compounds tested (Table 4).
as §5, §6, §7, §8

[7] = test system: breast cancer MDA-MB-231 cells; assay: Soft-agar clonogenic assay, MDA-MB-231; assay type: cell-based, human; settings: 14 days
Protocol: as §2, §3

[8] = test system: MDA-MB-231 human breast cancer cells; design: method as in PMID 21741966; settings: concentration- and time-dependent; cited from earlier work
metastatic breast cancer = test system: metastatic breast cancer; design: method as in PMID 21761157; settings: syngeneic murine model of metastatic breast cancer; cited from earlier work
[9] = test system: AsPC-1 human pancreatic cancer cells; design: method as in PMID 18837899; settings: by induction of apoptosis; cited from earlier work

CO[C@@H]1[C@@H](O)[C@H](O[C@@H]2[C@@H](O)[C@H](O[C@H]3[C@H](O)[C@@H](O)[C@H](O[C@H]4[C@H](O[C@H]5CC[C@]6(C)C7=C(CC[C@H]6C5(C)C)[C@]5(C)C[C@H](OC(C)=O)[C@H]([C@@](C)(O)CCC=C(C)C)[C@@]5(CO)CC7)OC[C@@H](O)[C@@H]4O)O[C@@H]3C)O[C@H](CO)[C@H]2O)OC[C@H]1O [Compound 2, (20S)-3β-O-[3-O-methyl-β-D-xylopyranosyl-(1→3)-β-D-glucopyranosyl-(1→4)-β-D-quinovopyranosyl-(1→2)-β-D-xylopyranosyl]-16β-acetoxy,18,20-dihydroxy-5α-lanosta-8(9),24-diene]
inhibition at 5 µM [1]: 15% | decrease of the number of colonies, HCT 116 ([2]; 0.6 µM): 11% | decrease of the number of colonies, HCT 116 ([2]; 1.25 µM): 24% | decrease of the number of colonies, HCT 116 ([2]; 2.5 µM): 52% | decrease of the number of colonies, HCT 116 ([2]; 5 µM): 97% | cytotoxic activity in words, MDA-MB-231 [3]: Moderate | IC50 ([3]; Homo sapiens, MDA-MB-231, MTS assay, 24 h of cell incubation, mean ± SD, read-out: IC50, MDA-MB-231): 15.5 ± 1.6 µM | SI (selectivity index), MDA-MB-231 ([3]; mean IC50 against normal cells (HEK 293)/mean IC50 against MDA-MB-231, 24 h): 1.2 | cytotoxic activity in words, HEK 293 [4]: Moderate | IC50 ([4]; Homo sapiens, HEK293, MTS assay, 24 h of cell incubation, mean ± SD, read-out: IC50, HEK 293): 18.5 ± 2.5 µM | suppression of migration of HCT 116 cells ([5]; 0.6 µM): 8% | reduction of migration of HCT 116 cells ([5]; 0.6 µM): 3% | suppression of migration of HCT 116 cells ([5]; 1.25 µM): 18% | reduction of migration of HCT 116 cells ([5]; 1.25 µM): 3% | suppression of migration of HCT 116 cells ([5]; 2.5 µM): 42% | reduction of migration of HCT 116 cells ([5]; 2.5 µM): 23% | suppression of migration of HCT 116 cells ([5]; 5 µM): 41% | reduction of migration of HCT 116 cells ([5]; 5 µM): 41% | inhibition at 0.6 µM ([5]; Homo sapiens, HCT-116, 0.6 µM, 24 h of treatment, compared to control 24 h, read-out: inhibition of migration of HCT 116 cells): 5% | inhibition at 1.25 µM ([5]; Homo sapiens, HCT-116, 1.25 µM, 24 h of treatment, compared to control 24 h, read-out: inhibition of migration of HCT 116 cells): 17% | inhibition at 2.5 µM ([5]; Homo sapiens, HCT-116, 2.5 µM, 24 h of treatment, compared to control 24 h, read-out: inhibition of migration of HCT 116 cells): 30% | inhibition at 5 µM ([5]; Homo sapiens, HCT-116, 5 µM, 24 h of treatment, compared to control 24 h, read-out: inhibition of migration of HCT 116 cells): 37% | cytotoxic activity in words, HCT 116 [6]: Moderate | IC50 ([6]; Homo sapiens, HCT-116, MTS assay, 24 h of cell incubation, mean ± SD, read-out: IC50, HCT 116): 18.6 ± 1.4 µM | SI (selectivity index), HCT 116 ([6]; mean IC50 against normal cells (HEK 293)/mean IC50 against HCT 116, 24 h): 1 | decrease of the number of colonies, MDA-MB-231 ([7]; 0.6 µM): 20% | decrease of the number of colonies, MDA-MB-231 ([7]; 1.25 µM): 39% | decrease of the number of colonies, MDA-MB-231 ([7]; 2.5 µM): 61% | decrease of the number of colonies, MDA-MB-231 ([7]; 5 µM): 80%

CO[C@@H]1[C@@H](O)[C@H](O[C@@H]2[C@@H](O)[C@H](O[C@H]3[C@H](O)[C@@H](O[C@@H]4OC[C@@H](O)[C@H](O)[C@H]4O)[C@H](O[C@H]4[C@H](OC5CC[C@]6(C)[C@H]7CCC89C(=O)O[C@@](C)(CCCC(C)C)C8[C@@H](OC(C)=O)C[C@@]9(C)C7=CC[C@H]6C5(C)C)OC[C@@H](OS(=O)(=O)O)[C@@H]4O)O[C@@H]3C)OC[C@H]2O)O[C@H](CO)[C@H]1O (some centres unmarked) [frondoside A]
viability of MDA-MB-231 cells [8]: decreases the viability | antimetastatic effect (metastatic breast cancer): potent antimetastatic effect | proliferation of AsPC-1 cells [9]: inhibits proliferation
